{"source": "patent US10532066B2", "about": "“Surfactant lipids, compositions thereof, and uses thereof” (National Jewish Health, priority 2007, dated 2020)", "key": {"TLR4": {"molecular_target": "T1, TLR4 (Homo sapiens, UniProt O00206)", "T1 construct": "multiple Toll-like receptors (TLRs) on primary human neutrophils; endogenous in cells; host or cells: primary human neutrophils", "T1 sequence (O00206 24-839)": "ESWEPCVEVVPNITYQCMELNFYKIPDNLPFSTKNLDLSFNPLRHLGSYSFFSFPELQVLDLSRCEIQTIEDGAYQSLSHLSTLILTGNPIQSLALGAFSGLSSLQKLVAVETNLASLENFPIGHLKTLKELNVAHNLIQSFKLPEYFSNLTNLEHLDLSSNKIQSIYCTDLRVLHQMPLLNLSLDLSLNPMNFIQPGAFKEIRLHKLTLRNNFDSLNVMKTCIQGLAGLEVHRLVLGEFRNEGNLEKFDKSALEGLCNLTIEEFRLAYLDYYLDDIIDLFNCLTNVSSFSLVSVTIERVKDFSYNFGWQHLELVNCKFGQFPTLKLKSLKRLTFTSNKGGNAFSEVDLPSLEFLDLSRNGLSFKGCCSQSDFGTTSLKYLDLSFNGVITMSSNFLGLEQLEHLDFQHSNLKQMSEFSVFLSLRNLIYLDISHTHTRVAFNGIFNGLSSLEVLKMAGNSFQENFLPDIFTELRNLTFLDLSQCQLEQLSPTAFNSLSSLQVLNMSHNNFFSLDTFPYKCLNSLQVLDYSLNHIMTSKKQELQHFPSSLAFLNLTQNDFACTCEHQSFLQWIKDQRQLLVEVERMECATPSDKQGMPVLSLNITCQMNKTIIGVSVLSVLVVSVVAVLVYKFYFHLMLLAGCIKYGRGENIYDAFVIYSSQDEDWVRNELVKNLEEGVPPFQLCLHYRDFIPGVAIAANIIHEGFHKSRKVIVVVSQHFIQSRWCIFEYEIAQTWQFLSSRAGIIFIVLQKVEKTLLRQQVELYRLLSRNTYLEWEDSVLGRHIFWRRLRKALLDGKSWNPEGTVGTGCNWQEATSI", "T1 sequence (Q9Y6Y9 19-160 partner)": "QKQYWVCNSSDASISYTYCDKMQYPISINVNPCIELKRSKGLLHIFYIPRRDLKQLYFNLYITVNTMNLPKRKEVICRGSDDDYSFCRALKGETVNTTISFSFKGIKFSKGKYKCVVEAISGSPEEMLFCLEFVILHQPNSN", "experiment": "TLR agonist IL-8 production in primary human neutrophils, TLR4", "assay_type": "cell-based", "settings": "LPS, 5-24 h", "experimental": "(§1) In this experiment, multiple TLRs were stimulated with defined TLR agonists for 5-24 h as indicated, and the IL-8 production was measured. In each case the maximal stimulation by agonist is set at 100% and the antagonism by POPG is expressed as the relative % response. The Controls consist of no treatment, or treatment with POPG, in the absence of agonist as indicated. The agonists for the TLRs consist of Pam3Cys for TLR1/2, double stranded RNA (poly IC) for TLR3, Gram-negative lipopolysaccharide (LPS) for TLR4, and single stranded RNA (polyU) for TLR7/8."}, "RSV [1]": {"tested_on": "RSV", "experiment": "RSV binding to Hep2 cells (FACScan)", "assay_type": "cell-based, Respiratory Syncytial Virus (RSV)", "settings": "Hep2, multiplicity 50, 37 C 10 min, lipid 200 ug/ml", "experimental": "Suspensions of 3×10^5 Hep2 cells were treated with RSV at a multiplicity of 50, at 37 C for 10 min, in either the absence of lipid, or the presence of 200 ug/ml POPG, or POPC, as indicated. The cells were next shifted to 0 C and washed 3 times with PBS. The cells were then incubated with monoclonal mouse anti-RSV antibody for 1 h at 0 C in PBS containing 5% BSA. The unbound antibody was removed by washing the cells 3 times with PBS, 5% BSA. Next, the cells were incubated with phycoerythrin conjugated rabbit anti-mouse antibody in PBS, 5% BSA for 2 h. Following this incubation the cells were washed 3 times with PBS and fixed overnight with 1% buffered formalin. The fixed cell preparation was washed 3 times with PBS and subjected to FACScan analysis as shown in the left panel of FIG. 38. The summary of the mean fluorescence intensity (MFI) for all conditions is shown in the right panel of FIG. 38."}, "RSV [2]": {"tested_on": "RSV", "experiment": "RSV binding to solid phase phospholipids (ELISA)", "design": "species or system Respiratory Syncytial Virus (RSV)", "settings": "10 ug lipid per well, varying RSV", "experimental": "Solid phase phospholipids (10 ug) were adsorbed to microtiter wells by evaporation of ethanol solvent. The wells were blocked with albumin and exposed to varying concentrations of RSV as shown in the left panel of FIG. 37. The wells were washed 3 times with phosphate buffered saline and the bound virus was detected by ELISA using polyclonal rabbit anti-RSV."}, "influenza-A virus H3N2": {"tested_on": "influenza-A virus H3N2", "assay_type": "cell-based", "settings": "BEAS2B, multiplicities 1-10, 24, 48 and 72 h, 200 ug/ml POPG added 30 minutes prior"}, "TLR2": {"molecular_target": "TLR2 (Homo sapiens, UniProt O60603)", "sequence (O60603 21-784)": "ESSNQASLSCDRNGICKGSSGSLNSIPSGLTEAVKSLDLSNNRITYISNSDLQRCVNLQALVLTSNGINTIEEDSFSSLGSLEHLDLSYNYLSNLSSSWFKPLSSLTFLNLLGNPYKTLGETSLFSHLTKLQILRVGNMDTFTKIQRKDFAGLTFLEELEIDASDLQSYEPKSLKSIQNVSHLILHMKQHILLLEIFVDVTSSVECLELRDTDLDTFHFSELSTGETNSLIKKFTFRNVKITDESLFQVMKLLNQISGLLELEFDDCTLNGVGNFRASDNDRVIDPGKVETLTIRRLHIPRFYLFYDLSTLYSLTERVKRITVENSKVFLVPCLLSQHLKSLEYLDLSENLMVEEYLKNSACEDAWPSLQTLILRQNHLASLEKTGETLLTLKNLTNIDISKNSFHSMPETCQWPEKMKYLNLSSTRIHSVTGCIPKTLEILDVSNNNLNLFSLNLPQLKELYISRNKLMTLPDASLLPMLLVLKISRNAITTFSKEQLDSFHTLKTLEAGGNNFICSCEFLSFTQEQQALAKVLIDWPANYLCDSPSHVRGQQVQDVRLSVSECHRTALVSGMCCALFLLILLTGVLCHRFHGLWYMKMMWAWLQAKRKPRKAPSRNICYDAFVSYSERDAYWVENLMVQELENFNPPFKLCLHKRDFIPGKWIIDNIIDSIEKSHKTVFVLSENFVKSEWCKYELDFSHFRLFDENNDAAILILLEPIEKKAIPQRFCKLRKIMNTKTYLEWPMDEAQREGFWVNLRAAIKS", "experiment": "TLR agonist IL-8 production in primary human neutrophils, TLR2", "assay_type": "cell-based", "design": "endogenous in cells; host or cells: primary human neutrophils", "settings": "Pam3Cys, 5-24 h", "experimental": "as §1"}, "Toll-like receptor 3": {"molecular_target": "T2, Toll-like receptor 3 (Homo sapiens, UniProt O15455)", "T2 construct": "endogenous in cells; host or cells: primary normal human bronchial epithelial (NHBE) cells", "experiment": "polyIC IL-8 production in NHBE cells", "assay_type": "cell-based", "settings": "24 hr", "experimental": "In this experiment, NHBE cells were stimulated with double stranded RNA (polyIC) and the IL-8 production was measured after an interval of 24 hr. The maximal stimulation by agonist is set at 100% and the antagonism by POPG is expressed as the relative % response. The Controls consist of no treatment, or treatment with POPG, in the absence of agonist as indicated."}, "TLR3": {"molecular_target": "T3, TLR3 (Homo sapiens, UniProt O15455)", "T3 sequence (O15455 24-904)": "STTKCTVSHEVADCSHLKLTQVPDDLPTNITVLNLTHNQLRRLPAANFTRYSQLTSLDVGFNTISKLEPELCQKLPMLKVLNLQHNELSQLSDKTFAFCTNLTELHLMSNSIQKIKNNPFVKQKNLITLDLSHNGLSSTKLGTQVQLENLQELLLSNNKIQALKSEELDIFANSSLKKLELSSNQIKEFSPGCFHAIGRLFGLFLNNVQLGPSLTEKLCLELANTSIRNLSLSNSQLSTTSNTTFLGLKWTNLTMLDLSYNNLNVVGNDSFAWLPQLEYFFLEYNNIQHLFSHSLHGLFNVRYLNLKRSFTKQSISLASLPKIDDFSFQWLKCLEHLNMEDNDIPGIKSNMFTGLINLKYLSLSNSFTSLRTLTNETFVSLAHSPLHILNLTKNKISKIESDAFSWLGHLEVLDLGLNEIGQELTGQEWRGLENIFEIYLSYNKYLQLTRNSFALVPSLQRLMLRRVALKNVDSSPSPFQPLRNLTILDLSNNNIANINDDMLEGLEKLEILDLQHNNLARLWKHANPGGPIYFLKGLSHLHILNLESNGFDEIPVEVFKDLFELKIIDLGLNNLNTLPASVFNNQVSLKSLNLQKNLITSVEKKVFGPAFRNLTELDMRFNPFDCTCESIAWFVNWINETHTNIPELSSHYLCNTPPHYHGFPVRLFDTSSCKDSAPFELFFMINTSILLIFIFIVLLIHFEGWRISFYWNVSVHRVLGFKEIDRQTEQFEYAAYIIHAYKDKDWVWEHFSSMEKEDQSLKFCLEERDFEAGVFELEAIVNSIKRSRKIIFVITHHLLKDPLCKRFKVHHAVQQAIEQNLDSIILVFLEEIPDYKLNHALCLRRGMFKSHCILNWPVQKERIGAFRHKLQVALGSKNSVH", "experiment": "TLR agonist IL-8 production in primary human neutrophils, TLR3", "assay_type": "cell-based", "design": "endogenous in cells; host or cells: primary human neutrophils", "settings": "poly IC, 5-24 h", "experimental": "as §1"}}}
{"smiles": "CCCCCCCC/C=C\\CCCCCCCC(=O)O[C@H](COC(=O)CCCCCCCCCCCCCCC)COP(=O)(O)OCC(O)CO", "note": "(stereo partly shown) [POPG, palmitoyl-oleoyl-phosphatidylglycerol]", "values": [{"measurement": "activity of TLR4 (IL-8 production)", "setting": "TLR4", "result": "inhibits"}, {"measurement": "binding of RSV to epithelial cells", "setting": "RSV [1]", "result": "blocks the binding"}, {"measurement": "binding of RSV to solid phase phospholipid", "setting": "RSV [2]", "result": "binds RSV with high affinity and specificity"}, {"measurement": "influenza-A induced IL-8 production", "setting": "influenza-A virus H3N2", "result": "suppresses"}, {"measurement": "activity of TLR2 (IL-8 production)", "setting": "TLR2", "result": "inhibits"}, {"measurement": "activity of TLR3 (IL-8 production)", "setting": "Toll-like receptor 3", "result": "inhibits"}, {"measurement": "activity of TLR3 (IL-8 production)", "setting": "TLR3", "result": "inhibits"}]}
